Assay results: patent US4528369A, “20-Dihydro-20-deoxy-23-de(mycinosyloxy)tylosin” (Eli Lilly and Company, priority 1983, dated 1985)
≈ marks a conversion by molar mass, not a printed value. Entries after “also recorded” stand apart in the source; their conditions may differ. Where two headings read alike, the source gives them in different places.

Columns and labels:
[1] = tested on: pathogenic bacteria, especially gram-positive bacteria and Mycoplasma species; assay: Inhibition of growth of pathogenic bacteria (in words); assay type: cell-based
Procedure: (§1) Tables II and III summarize the minimal inhibitory concentrations (MIC) at which 20-deoxo-DMOT and mycaminosyltylactone (as free bases) inhibit certain organisms. The MIC's in Table II were determined by standard agar-dilutionassays. The MIC's in Table III were obtained using a conventional broth-dilution microtiter test.

[2] = tested on: Streptococcus pyogenes C203; assay: MIC, standard agar-dilution assay (Table II); assay type: cell-based
Procedure: as §1

[3] = tested on: Staphylococcus aureus V41; assay: MIC, standard agar-dilution assay (Table II); assay type: cell-based; conditions: free base, S. aureus V41
Procedure: as §1

[4] = tested on: Streptococcus sp. group D 9960; assay: MIC, standard agar-dilution assay (Table II); assay type: cell-based
Procedure: as §1

[5] = tested on: Klebsiella pneumoniae X26; assay: MIC, standard agar-dilution assay (Table II); assay type: cell-based
Procedure: as §1

Escherichia coli N10 = assay: MIC, standard agar-dilution assay (Table II); assay type: cell-based; conditions: free base, E. coli N10
Procedure: as §1

[6] = tested on: Haemophilus influenzae C.L.; assay: MIC, standard agar-dilution assay (Table II); assay type: cell-based
Procedure: as §1

[7] = tested on: Staphylococcus aureus NRRL B313; assay: MIC, standard agar-dilution assay (Table II); assay type: cell-based
Procedure: as §1

[8] = tested on: Streptococcus faecium ATCC 9790; assay: MIC, standard agar-dilution assay (Table II); assay type: cell-based; conditions: Enterococcus faecium, ATCC9790
Procedure: as §1

[9] = tested on: Haemophilus influenzae 76; assay: MIC, standard agar-dilution assay (Table II); assay type: cell-based
Procedure: as §1

Shigella sonnei N9 = assay: MIC, standard agar-dilution assay (Table II); assay type: cell-based; conditions: free base
Procedure: as §1

[10] = tested on: Streptococcus pneumoniae Park 1; assay: MIC, standard agar-dilution assay (Table II); assay type: cell-based; conditions: PARK1, free base, S. pneumoniae Park 1
Procedure: as §1

[11] = tested on: Staphylococcus epidermidis EPI2; assay: MIC, standard agar-dilution assay (Table II); assay type: cell-based; conditions: free base, S. epidermidis EPI2
Procedure: as §1

[12] = tested on: Staphylococcus aureus S13E; assay: MIC, standard agar-dilution assay (Table II); assay type: cell-based
Procedure: as §1

[13] = tested on: Staphylococcus aureus X400; assay: MIC, standard agar-dilution assay (Table II); assay type: cell-based
Procedure: as §1

Escherichia coli EC14 = assay: MIC, standard agar-dilution assay (Table II); assay type: cell-based; conditions: free base, E. coli EC14
Procedure: as §1

Escherichia coli TEM = assay: MIC, standard agar-dilution assay (Table II); assay type: cell-based
Procedure: as §1

[14] = tested on: Staphylococcus epidermidis EPI1; assay: MIC, standard agar-dilution assay (Table II); assay type: cell-based; conditions: free base, S. epidermidis EPI1
Procedure: as §1

[15] = tested on: Klebsiella pneumoniae KAE; assay: MIC, standard agar-dilution assay (Table II); assay type: cell-based; conditions: free base, K. pneumoniae KAE
Procedure: as §1

Solubility = assay type: physicochemical; conditions: free base
Mycoplasma hyorhinis = assay: MIC, conventional broth-dilution microtiter test (Table III); assay type: cell-based; conditions: free base, M. hyorhinis
Procedure: as §1

[16] = tested on: Pasteurella hemolytica 22C; assay: as above; assay type: cell-based; conditions: free base, P. hemolytica 22C
Procedure: as §1

Mycoplasma synoviae = assay: as above; assay type: cell-based; conditions: Mycoplasmopsis synoviae, free base, M. synoviae
Procedure: as §1

[17] = tested on: Pasteurella multocida 60A; assay: as above; assay type: cell-based; conditions: free base, P. multocida 60A, avian isolate
Procedure: as §1

Mycoplasma gallisepticum = assay: as above; assay type: cell-based; conditions: Mycoplasmoides gallisepticum, free base, M. gallisepticum
Procedure: as §1

[18] = tested on: Pasteurella multocida 17E; assay: as above; assay type: cell-based; conditions: free base, P. multocida 17E, bovine isolate
Procedure: as §1

Compound	antibacterial activity (in words) [1]	MIC [3] [mg/L]	MIC (Escherichia coli N10) [mg/L]	MIC (Shigella sonnei N9) [mg/L]	MIC [10] [mg/L]	MIC [11] [mg/L]	MIC [12] [mg/L]	MIC (Escherichia coli EC14) [mg/L]	MIC (Escherichia coli TEM) [mg/L]	MIC [14] [mg/L]	MIC [15] [mg/L]	MIC (Mycoplasma hyorhinis) [mg/L]	MIC [16] [mg/L]	MIC (Mycoplasma synoviae) [mg/L]	MIC [17] [mg/L]	MIC (Mycoplasma gallisepticum) [mg/L]	MIC [18] [mg/L]	other results
CCC1CC(C)C(=O)/C=C/C(C)=C/C(C)C(CC)OC(=O)CC(O)C(C)C1OC1OC(C)C(OC2CC(C)(O)C(O)C(C)O2)C(N(C)C)C1O (stereo not shown) [20-Deoxo-DMOT, 20-dihydro-20-deoxy-23-de(mycinosyloxy)tylosin]	some antibacterial activity; also recorded: inhibit the growth of pathogenic bacteria, especially gram-positive bacteria and Mycoplasma species	64 (≈ 89.9 µM)	> 128	> 128	64 (≈ 89.9 µM)	64 (≈ 89.9 µM)	64 (≈ 89.9 µM)	> 128	> 128	64 (≈ 89.9 µM)	> 128	50 (≈ 70.2 µM)	> 50	50 (≈ 70.2 µM)	> 50	> 50	> 50	MIC ([2]; C203): 128 mg/L (≈ 180 µM); MIC ([4]; Streptococcus): > 128 mg/L; MIC ([5]; X26): > 128 mg/L; MIC [6]: > 128 mg/L; MIC ([7]; NRRLB313): 128 mg/L (≈ 180 µM); MIC [8]: > 128 mg/L; MIC [9]; 76: > 128 mg/L; MIC ([13]; X400): 128 mg/L (≈ 180 µM); solubility in water (Solubility): slightly soluble in water; solubility in polar organic solvents (Solubility; acetone, methanol, ethanol, chloroform, dimethylformamide and dimethyl sulfoxide): soluble in most polar organic solvents such as acetone, methanol, ethanol, chloroform, dimethylformamide and dimethyl sulfoxide
CCC1CC(C)C(=O)/C=C/C(C)=C/C(C)C(CC)OC(=O)CC(O)C(C)C1OC1OC(C)C(O)C(N(C)C)C1O (stereo not shown) [Mycaminosyltylactone, 5-O-mycaminosyltylactone]	inhibit the growth of pathogenic bacteria, especially gram-positive bacteria and Mycoplasma species	16 (≈ 28.2 µM)	> 128	> 128	4 (≈ 7.05 µM)	16 (≈ 28.2 µM)	8 (≈ 14.1 µM)	> 128	> 128	8 (≈ 14.1 µM)	> 128	50 (≈ 88.1 µM)	25 (≈ 44 µM)	12.5 (≈ 22 µM)	12.5 (≈ 22 µM)	1.56 (≈ 2.75 µM)	12.5 (≈ 22 µM)	MIC ([2]; free base, agar-dilution, S. pyogenes C203, read-out: MIC): 32 mg/L (≈ 56.4 µM); MIC ([4]; free base, agar-dilution, Streptococcus sp. group D 9960, read-out: MIC): 32 mg/L (≈ 56.4 µM); MIC ([5]; free base, agar-dilution, K. pneumoniae X26, read-out: MIC): 8 mg/L (≈ 14.1 µM); MIC ([6]; free base, agar-dilution, H. influenzae C.L., read-out: MIC): 16 mg/L (≈ 28.2 µM); MIC ([7]; NRRLB313, free base, agar-dilution, S. aureus NRRL B313, read-out: MIC): 16 mg/L (≈ 28.2 µM); MIC ([8]; free base, agar-dilution, S. faecium ATCC 9790, read-out: MIC): 32 mg/L (≈ 56.4 µM); MIC ([9]; free base, agar-dilution, H. influenzae 76, read-out: MIC): 16 mg/L (≈ 28.2 µM); MIC ([13]; free base, agar-dilution, S. aureus X400, read-out: MIC): 32 mg/L (≈ 56.4 µM)
